This is an account of results in patent publication US9315453B2, “4-(3-benzyloxyphenylthio)-2-chloro-1-(3-nitropropyl)benzene crystal” (KYORIN PHARMACEUTICAL CO., LTD., priority 2012, dated 2016).

Data set [1] can be described thus: Stability test of the crystals under accelerated and long-term storage conditions. Conditions: 6 months after the start of the test, crystals obtained in Example 1. Format: physicochemical. How it is done: The crystals of the compound 1 obtained in Example 1 were subjected to a stability test under accelerated conditions (40° C./75% RH) and long-term storage conditions (25° C./60% RH).

Where [2] appears, read: accelerated conditions (40° C./75% RH).
Where [3] appears, read: long-term storage conditions (25° C./60% RH).

The molecule `O=[N+]([O-])CCCc1ccc(Sc2cccc(OCc3ccccc3)c2)cc1Cl` [compound 1, 4-(3-benzyloxyphenylthio)-2-chloro-1-(3-nitropropyl)benzene] yielded a melting point of 46 to 47 °C. In addition, in data set [1] (setting [2]), the “change in the appearance of the crystals” value was “No change in the appearance” and the “formation of decomposition products” value was “no decomposition products were formed”. For the same molecule, in data set [1] (setting [3]), the “change in the appearance of the crystals” value is reported as “No change in the appearance” and the “formation of decomposition products” value is “no decomposition products were formed”.

One may read the melting point as the temperature, or range, at which the solid turns liquid.
